Values of other authors as cited in patent US12708655B2, “Botanicals as WNT/beta-catenin activators, molecular pathway regulators, tissue regenerators and health biomarker regulators” (Arbor Life Holdings, Ltd., priority 2020, dated 2026).

Legend:
[1] = compounds found in Eclipta; NA = Not Applicable; cited from earlier work
[2] = compounds found in Eclipta; NA = Not Applicable; cited from earlier work; remark: listed apart in the source

Compound: O=C(O)c1ccc(O)c(O)c1 [3,4-dihydroxybenzoic acid]
- Anticancer activity (AC) [1]: YES
- Antioxidant activity (AO) [2]: YES

Compound: O=C(O)c1ccc(O)cc1 [4-hydroxybenzoic acid]
- Anticancer activity (AC) [1]: YES
- Antioxidant activity (AO) [2]: YES

Compound: O=c1cc(-c2ccc(O)cc2)oc2cc(O[C@@H]3O[C@H](CO)[C@@H](O)[C@H](O)[C@H]3O)cc(O)c12 [Apigenin-7-O-glucoside]
- Anticancer activity (AC) [1]: YES
- Antioxidant activity (AO) [2]: YES

Compound: O=c1cc(-c2ccc(O)cc2)oc2cc(O)cc(O)c12 [Apigenin]
- Anticancer activity (AC) [1]: YES
- Antioxidant activity (AO) [2]: YES

Compound: O=C(/C=C/c1ccc(O)c(O)c1)c1ccc(O)cc1O [Butein]
- Anticancer activity (AC) [1]: YES
- Antioxidant activity (AO) [2]: YES

Compound: Oc1ccccc1O [Catechol]
- Anticancer activity (AC) [1]: YES
- Antioxidant activity (AO) [2]: YES

Compound: O=c1cc(-c2ccc(O)c(O)c2)oc2cc(O[C@@H]3O[C@H](CO)[C@@H](O)[C@H](O)[C@H]3O)cc(O)c12 [Cynaroside]
- Anticancer activity (AC) [1]: YES
- Antioxidant activity (AO) [2]: YES

Compound: O=c1oc2cc(O)cc(O)c2c2oc3cc(O)c(O)cc3c12 [Demethylwedelolactone]
- Anticancer activity (AC) [1]: YES
- Antioxidant activity (AO) [2]: YES

Compound: O=C(O)c1cc(O)c(O)c(O)c1 [Gallic acid]
- Anticancer activity (AC) [1]: YES
- Antioxidant activity (AO) [2]: YES

Compound: COC[C@@H]1Cc2cc(OC)c3c(c2[C@H](c2ccc(OC)c(OC)c2)[C@H]1COC)OCO3 [Hypophyllanthin]
- Anticancer activity (AC) [1]: YES
- Antioxidant activity (AO) [2]: YES

Compound: O=c1cc(-c2ccc(O)c(O)c2)oc2cc(O)cc(O)c12 [Luteolin]
- Anticancer activity (AC) [1]: YES
- Antioxidant activity (AO) [2]: YES

Compound: O[C@H]1[C@H](O)[C@@H](O)[C@H](O)[C@@H](O)[C@H]1O [Myoinositol]
- Anticancer activity (AC) [1]: YES
- Antioxidant activity (AO) [2]: YES

Compound: O=C(O)c1cccnc1 [Nicotinic acid]
- Anticancer activity (AC) [1]: YES
- Antioxidant activity (AO) [2]: YES

Compound: C[C@@H]1O[C@@H](Oc2c(-c3ccc(O)c(O)c3)oc3cc(O)cc(O)c3c2=O)[C@H](O)[C@H](O)[C@H]1O [Quercetin-3-rhamnoside]
- Anticancer activity (AC) [1]: YES
- Antioxidant activity (AO) [2]: YES

Compound: CC[C@H](/C=C/[C@@H](C)[C@H]1CC[C@H]2[C@@H]3CC=C4C[C@@H](O)CC[C@]4(C)[C@H]3CC[C@]12C)C(C)C [Stigmasterol]
- Anticancer activity (AC) [1]: YES
- Antioxidant activity (AO) [2]: YES

Compound: COc1cc(O)c2c(c1)oc(=O)c1c3cc(O)c(O)cc3oc21 [Wedelolactone]
- Anticancer activity (AC) [1]: YES
- Antioxidant activity (AO) [2]: YES

Compound: OCc1ccc(-c2ccc(-c3cccs3)s2)s1 [α-terthienyl methanol]
- Anticancer activity (AC) [1]: YES

Compound: CC1(C)CC[C@]2(C)CC[C@]3(C)C(=CC[C@@H]4[C@@]5(C)CC[C@H](O)C(C)(C)[C@@H]5CC[C@]43C)[C@@H]2C1 [β-amyrin]
- Antioxidant activity (AO) [2]: YES

Compound: CC[C@H](CC[C@@H](C)[C@H]1CC[C@H]2[C@@H]3CC=C4C[C@@H](O)CC[C@]4(C)[C@H]3CC[C@]12C)C(C)C [β-sitosterol]
- Anticancer activity (AC) [1]: YES
- Antioxidant activity (AO) [2]: YES

Compound: Demethylwedelolactone 7-glucoside
- Anticancer activity (AC) [1]: YES
- Antioxidant activity (AO) [2]: YES

Compound: Echinocystic acid
- Anticancer activity (AC) [1]: YES
